Test results published in PubChem BioAssay (NCI).
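GI50: concentration for 50% inhibition of growth. At the TGI there is no net growth.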

Tests used:
Test in all cases: NCI anticancer screen, dose series, 384-well format
786-0 renal = test system: 786-0 renal
A549 NSCLC = test system: A549 NSCLC
BT-549 breast = test system: BT-549 breast
CAKI-1 renal = test system: CAKI-1 renal
CCRF-CEM leukemia = test system: CCRF-CEM leukemia
COLO 205 colon = test system: COLO 205 colon
DU-145 prostate = test system: DU-145 prostate
EKVX NSCLC = test system: EKVX NSCLC
HCC-2998 colon = test system: HCC-2998 colon
HCT-116 colon = test system: HCT-116 colon
HCT-15 colon = test system: HCT-15 colon
HL-60(TB) leukemia = test system: HL-60(TB) leukemia
HOP-62 NSCLC = test system: HOP-62 NSCLC
HS 578T breast = test system: HS 578T breast
HT29 colon = test system: HT29 colon
IGROV1 ovarian = test system: IGROV1 ovarian
K-562 leukemia = test system: K-562 leukemia
KM12 colon = test system: KM12 colon
LOX IMVI melanoma = test system: LOX IMVI melanoma
M14 melanoma = test system: M14 melanoma
MALME-3M melanoma = test system: MALME-3M melanoma
MCF7 breast = test system: MCF7 breast
MDA-MB-231 breast = test system: MDA-MB-231 breast
MDA-MB-435 melanoma = test system: MDA-MB-435 melanoma
MDA-MB-468 breast = test system: MDA-MB-468 breast
MOLT-4 leukemia = test system: MOLT-4 leukemia
NCI-H226 lung = test system: NCI-H226 lung
NCI-H23 lung = test system: NCI-H23 lung
NCI-H322M lung = test system: NCI-H322M lung
NCI-H460 NSCLC = test system: NCI-H460 NSCLC
NCI-H522 lung = test system: NCI-H522 lung
NCI/ADR-RES ovarian = test system: NCI/ADR-RES ovarian
OVCAR-3 ovarian = test system: OVCAR-3 ovarian
OVCAR-4 ovarian = test system: OVCAR-4 ovarian
OVCAR-5 ovarian = test system: OVCAR-5 ovarian
OVCAR-8 ovarian = test system: OVCAR-8 ovarian
PC-3 prostate = test system: PC-3 prostate
RPMI-8226 leukemia = test system: RPMI-8226 leukemia
RXF 393 renal = test system: RXF 393 renal
SF-268 CNS = test system: SF-268 CNS
SF-295 CNS = test system: SF-295 CNS
SF-539 CNS = test system: SF-539 CNS
SK-MEL-2 melanoma = test system: SK-MEL-2 melanoma
SK-MEL-28 melanoma = test system: SK-MEL-28 melanoma
SK-MEL-5 melanoma = test system: SK-MEL-5 melanoma
SK-OV-3 ovarian = test system: SK-OV-3 ovarian
SN12C renal = test system: SN12C renal
SNB-19 CNS = test system: SNB-19 CNS
SNB-75 CNS = test system: SNB-75 CNS
SR leukemia = test system: SR leukemia
SW-620 colon = test system: SW-620 colon
T-47D breast = test system: T-47D breast
TK-10 renal = test system: TK-10 renal
U251 glioblastoma = test system: U251 glioblastoma
UACC-257 melanoma = test system: UACC-257 melanoma
UACC-62 melanoma = test system: UACC-62 melanoma
UO-31 renal = test system: UO-31 renal

C=CCn1c(=O)c2cnc(Nc3ccc(N4CCN(C)CC4)cc3)nc2n1-c1cccc(C(C)(C)O)n1
GI50 ([…]-0 renal): 183 nM | TGI (786-0 renal): 414 nM | GI50 (A549 NSCLC): 1020 nM | TGI (A549 NSCLC): 12800 nM | GI50 (BT-549 breast): 115 nM | TGI (BT-549 breast): 299 nM | GI50 (CAKI-1 renal): 72.3 nM | TGI (CAKI-1 renal): 11200 nM | GI50 (CCRF-CEM leukemia): 69.9 nM | TGI (CCRF-CEM leukemia): 197 nM | GI50 (COLO 205 colon): 294 nM | TGI (COLO 205 colon): 829 nM | GI50 (DU-145 prostate): 262 nM | TGI (DU-145 prostate): 1810 nM | GI50 (EKVX NSCLC): 560 nM | TGI (EKVX NSCLC): 4800 nM | GI50 (HCC-2998 colon): 203 nM | TGI (HCC-2998 colon): 555 nM | GI50 (HCT-116 colon): 308 nM | TGI (HCT-116 colon): 2240 nM | GI50 (HCT-15 colon): 326 nM | TGI (HCT-15 colon): 1210 nM | GI50 (HL-60(TB) leukemia): 148 nM | TGI (HL-60(TB) leukemia): 284 nM | GI50 (HOP-62 NSCLC): 406 nM | TGI (HOP-62 NSCLC): 2130 nM | GI50 (HS 578T breast): 154 nM | TGI (HS 578T breast): 529 nM | GI50 (HT29 colon): 319 nM | TGI (HT29 colon): 15200 nM | GI50 (IGROV1 ovarian): 173 nM | TGI (IGROV1 ovarian): 1090 nM | GI50 (K-562 leukemia): 175 nM | TGI (K-562 leukemia): 347 nM | GI50 (KM12 colon): 218 nM | TGI (KM12 colon): 649 nM | GI50 (LOX IMVI melanoma): 626 nM | TGI (LOX IMVI melanoma): 2710 nM | GI50 (M14 melanoma): 51.4 nM | TGI (M14 melanoma): 246 nM | GI50 (MALME-3M melanoma): 52.9 nM | TGI (MALME-3M melanoma): 342 nM | GI50 (MCF7 breast): 216 nM | TGI (MCF7 breast): 11500 nM | GI50 (MDA-MB-231 breast): 372 nM | TGI (MDA-MB-231 breast): 7330 nM | GI50 (MDA-MB-435 melanoma): 201 nM | TGI (MDA-MB-435 melanoma): 413 nM | GI50 (MDA-MB-468 breast): 220 nM | TGI (MDA-MB-468 breast): 492 nM | GI50 (MOLT-4 leukemia): 29.9 nM | TGI (MOLT-4 leukemia): 103 nM | GI50 (NCI-H226 lung): 1410 nM | TGI (NCI-H226 lung): 9220 nM | GI50 (NCI-H23 lung): 94.5 nM | TGI (NCI-H23 lung): 254 nM | GI50 (NCI-H322M lung): 233 nM | TGI (NCI-H322M lung): 935 nM | GI50 (NCI-H460 NSCLC): 574 nM | TGI (NCI-H460 NSCLC): 3420 nM | GI50 (NCI-H522 lung): 135 nM | TGI (NCI-H522 lung): 286 nM | GI50 (NCI/ADR-RES ovarian): 1810 nM | TGI (NCI/ADR-RES ovarian): 4950 nM | GI50 (OVCAR-3 ovarian): 130 nM | TGI (OVCAR-3 ovarian): 328 nM | GI50 (OVCAR-4 ovarian): 157 nM | TGI (OVCAR-4 ovarian): 407 nM | GI50 (OVCAR-5 ovarian): 596 nM | TGI (OVCAR-5 ovarian): 6100 nM | GI50 (OVCAR-8 ovarian): 219 nM | TGI (OVCAR-8 ovarian): 566 nM | GI50 (PC-3 prostate): 724 nM | TGI (PC-3 prostate): 21000 nM | GI50 (RPMI-8226 leukemia): 260 nM | TGI (RPMI-8226 leukemia): 1120 nM | GI50 (RXF 393 renal): 48.7 nM | TGI (RXF 393 renal): 196 nM | GI50 (SF-268 CNS): 559 nM | TGI (SF-268 CNS): 10700 nM | GI50 (SF-295 CNS): 357 nM | TGI (SF-295 CNS): 2260 nM | GI50 (SF-539 CNS): 51 nM | TGI (SF-539 CNS): 178 nM | GI50 (SK-MEL-2 melanoma): 160 nM | TGI (SK-MEL-2 melanoma): 393 nM | GI50 (SK-MEL-28 melanoma): 3440 nM | TGI (SK-MEL-28 melanoma): 17100 nM | GI50 (SK-MEL-5 melanoma): 187 nM | TGI (SK-MEL-5 melanoma): 460 nM | GI50 (SK-OV-3 ovarian): 76.6 nM | TGI (SK-OV-3 ovarian): 1460 nM | GI50 (SN12C renal): 311 nM | TGI (SN12C renal): 2270 nM | GI50 (SNB-19 CNS): 502 nM | TGI (SNB-19 CNS): 15400 nM | GI50 (SNB-75 CNS): 1210 nM | TGI (SNB-75 CNS): 4350 nM | GI50 (SR leukemia): 58.4 nM | TGI (SR leukemia): 184 nM | GI50 (SW-620 colon): 352 nM | TGI (SW-620 colon): 1930 nM | GI50 (T-47D breast): 5880 nM | TGI (T-47D breast): 28900 nM | GI50 (TK-10 renal): 171 nM | TGI (TK-10 renal): 700 nM | GI50 (U251 glioblastoma): 419 nM | TGI (U251 glioblastoma): 6770 nM | GI50 (UACC-257 melanoma): 10000 nM | TGI (UACC-257 melanoma): 21900 nM | GI50 (UACC-62 melanoma): 354 nM | TGI (UACC-62 melanoma): 12800 nM | GI50 (UO-31 renal): 274 nM | TGI (UO-31 renal): 1250 nM
